Laboratory results: patent US11535621B2, “Heterobicyclic amides as inhibitors of CD38” (Ribon Therapeutics, Inc., priority 2019, dated 2022)

target: Human CD38 (Homo sapiens (Human), UniProt P28907); experiment: CD38 enzyme assay; format: biochemical; settings: 2 nM CD38, NAD+ substrate, absorbance at 405 nm
Summary of the method: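 IC50 values come from fitting % inhibition against compound concentration with a 4-parameter logistic, or a 3-parameter fit with top/bottom fixed at 100/0 or Hill at 1. Inhibition is scaled between DMSO wells and positive-control wells treated with a quinolinone CD38 inhibitor.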

Sequence of Human CD38 (P28907 whole entry): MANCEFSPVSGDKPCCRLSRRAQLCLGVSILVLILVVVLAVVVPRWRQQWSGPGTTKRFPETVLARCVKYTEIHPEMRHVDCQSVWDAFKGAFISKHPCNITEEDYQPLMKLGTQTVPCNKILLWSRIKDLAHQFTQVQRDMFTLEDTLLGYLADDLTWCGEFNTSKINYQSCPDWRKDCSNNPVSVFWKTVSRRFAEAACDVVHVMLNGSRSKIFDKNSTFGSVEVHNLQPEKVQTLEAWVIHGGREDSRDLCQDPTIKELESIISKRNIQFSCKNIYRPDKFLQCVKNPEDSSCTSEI

Row | Structure (SMILES) | IC50 [nM]
1 | O=C(Nc1cn[nH]c1)c1nc(-n2ccnc2)nc2cc[nH]c12 [Example 98, 2-(1H-Imidazol-1-yl)-N-(1H-pyrazol-4-yl)-5H-pyrrolo[3,2-d]pyrimidine-4-carboxamide] | < 10
2 | Cn1cc(NC(=O)c2nc(-n3ccnc3)nc3cc[nH]c23)cn1 [Example 99, 2-(1H-Imidazol-1-yl)-N-(1-methyl-1H-pyrazol-4-yl)-5H-pyrrolo[3,2-d]pyrimidine-4-carboxamide] | < 10
3 | COCCOc1cccc(NC(=O)c2nc(-n3ccnc3)nc3cc[nH]c23)c1 [Example 100, 2-(1H-Imidazol-1-yl)-N-(3-(2-methoxyethoxy)phenyl)-5H-pyrrolo[3,2-d]pyrimidine-4-carboxamide] | < 10
4 | O=C(N[C@H]1CC[C@H](NCC(F)(F)F)CC1)c1nc(-n2ccnc2)nc2cc[nH]c12 [Example 101, 2-(1H-imidazol-1-yl)-N-((1r,4r)-4-((2,2,2-trifluoroethyl)amino)cyclohexyl)-5H-pyrrolo[3,2-d]pyrimidine-4-carboxamide] | 10 to 100
5 | O=C(N[C@H]1CC[C@@H](NCC(F)(F)F)CC1)c1nc(-n2ccnc2)nc2cc[nH]c12 [Example 102, 2-(1H-imidazol-1-yl)-N-((1s,4s)-4-((2,2,2-trifluoroethyl)amino)cyclohexyl)-5H-pyrrolo[3,2-d]pyrimidine-4-carboxamide] | 10 to 100
6 | O=C(N[C@H]1CC[C@H](NCCC(F)(F)F)CC1)c1nc(-n2ccnc2)nc2cc[nH]c12 [Example 103, 2-(1H-imidazol-1-yl)-N-((1r,4r)-4-((3,3,3-trifluoropropyl)amino)cyclohexyl)-5H-pyrrolo[3,2-d]pyrimidine-4-carboxamide] | 10 to 100
7 | N#CCO[C@H]1CC[C@H](NC(=O)c2nc(-n3ccnc3)nc3cc[nH]c23)CC1 [Example 104, N-((1r,4r)-4-(cyanomethoxy)cyclohexyl)-2-(1H-imidazol-1-yl)-5H-pyrrolo[3,2-d]pyrimidine-4-carboxamide] | < 10
8 | O=C(N[C@H]1CC[C@H](NCC(F)F)CC1)c1nc(-n2ccnc2)nc2cc[nH]c12 [Example 105, N-((1r,4r)-4-((2,2-difluoroethyl)amino)cyclohexyl)-2-(1H-imidazol-1-yl)-5H-pyrrolo[3,2-d]pyrimidine-4-carboxamide] | 10 to 100
9 | O=C(N[C@H]1CC[C@@H](NCC(F)F)CC1)c1nc(-n2ccnc2)nc2cc[nH]c12 [Example 106, N-((1s,4s)-4-((2,2-difluoroethyl)amino)cyclohexyl)-2-(1H-imidazol-1-yl)-5H-pyrrolo[3,2-d]pyrimidine-4-carboxamide] | 100 to 1000
10 | O=C(NC1CCC(F)(F)CC1)c1nc(-n2ccnc2)cc2cn[nH]c12 [Example 107, N-(4,4-difluorocyclohexyl)-5-(1H-imidazol-1-yl)-1H-pyrazolo[3,4-c]pyridine-7-carboxamide] | < 10
11 | COCCO[C@H]1CC[C@H](NC(=O)c2nc(-n3ccnc3)nc3cc(C)[nH]c23)CC1 [Example 108, 2-(1H-imidazol-1-yl)-N-((1r,4r)-4-(2-methoxyethoxy)cyclohexyl)-6-methyl-5H-pyrrolo[3,2-d]pyrimidine-4-carboxamide] | 10 to 100
12 | CC(C)(O)[C@H]1CC[C@H](NC(=O)c2nc(-n3ccnc3)cc3cn[nH]c23)CC1 [Example 109, N-((1r,4r)-4-(2-hydroxypropan-2-yl)cyclohexyl)-5-(1H-imidazol-1-yl)-1H-pyrazolo[3,4-c]pyridine-7-carboxamide] | < 10
13 | CN(CCC(F)(F)F)[C@H]1CC[C@H](NC(=O)c2nc(-n3ccnc3)nc3cc[nH]c23)CC1 [Example 110, 2-(1H-imidazol-1-yl)-N-((1r,4r)-4-(methyl(3,3,3-trifluoropropyl)amino)cyclohexyl)-5H-pyrrolo[3,2-d]pyrimidine-4-carboxamide] | 10 to 100
14 | CN(CCC(F)(F)F)[C@H]1CC[C@@H](NC(=O)c2nc(-n3ccnc3)nc3cc[nH]c23)CC1 [Example 111, 2-(1H-imidazol-1-yl)-N-((1s,4s)-4-(methyl(3,3,3-trifluoropropyl)amino)cyclohexyl)-5H-pyrrolo[3,2-d]pyrimidine-4-carboxamide] | 100 to 1000
15 | CN(CC(F)(F)F)[C@H]1CC[C@H](NC(=O)c2nc(-n3ccnc3)nc3cc[nH]c23)CC1 [Example 112, 2-(1H-imidazol-1-yl)-N-((1r,4r)-4-(methyl(2,2,2-trifluoroethyl)amino)cyclohexyl)-5H-pyrrolo[3,2-d]pyrimidine-4-carboxamide] | 10 to 100
16 | CN(CC(F)(F)F)[C@H]1CC[C@@H](NC(=O)c2nc(-n3ccnc3)nc3cc[nH]c23)CC1 [Example 113, 2-(1H-imidazol-1-yl)-N-((1s,4s)-4-(methyl(2,2,2-trifluoroethyl)amino)cyclohexyl)-5H-pyrrolo[3,2-d]pyrimidine-4-carboxamide] | 10 to 100
17 | CC(=O)NC[C@H]1CC[C@H](NC(=O)c2nc(-n3ccnc3)nc3cc[nH]c23)CC1 [Example 114, N-((1r,4r)-4-(acetamidomethyl)cyclohexyl)-2-(1H-imidazol-1-yl)-5H-pyrrolo[3,2-d]pyrimidine-4-carboxamide] | < 10
18 | O=C(N[C@H]1CC[C@H](NCC(F)(F)F)CC1)c1nc(-n2ccnc2)cc2cn[nH]c12 [Example 115, 5-(1H-imidazol-1-yl)-N-((1r,4r)-4-((2,2,2-trifluoroethyl)amino)cyclohexyl)-1H-pyrazolo[3,4-c]pyridine-7-carboxamide] | 10 to 100
19 | O=C(N[C@H]1CC[C@@H](NCC(F)(F)F)CC1)c1nc(-n2ccnc2)cc2cn[nH]c12 [Example 116, 5-(1H-imidazol-1-yl)-N-((1s,4s)-4-((2,2,2-trifluoroethyl)amino)cyclohexyl)-1H-pyrazolo[3,4-c]pyridine-7-carboxamide] | 10 to 100
20 | Cc1nc2nc(-n3ccnc3)nc(C(=O)NC3CCC(F)(F)CC3)c2[nH]1 [Example 117, N-(4,4-difluorocyclohexyl)-2-(1H-imidazol-1-yl)-8-methyl-7H-purine-6-carboxamide] | 10 to 100
21 | CC(C)(C#N)c1ccc(NC(=O)c2nc(-n3ccnc3)nc3cc[nH]c23)cc1 [Example 118, N-[4-(1-cyano-1-methyl-ethyl)phenyl]-2-imidazol-1-yl-5H-pyrrolo[3,2-d]pyrimidine-4-carboxamide] | < 10
22 | O=C(N[C@H]1CC[C@](O)(C(F)(F)F)CC1)c1nc(-n2ccnc2)nc2cc[nH]c12 [Example 120a, N-((1s,4s)-4-hydroxy-4-(trifluoromethyl)cyclohexyl)-2-(1H-imidazol-1-yl)-5H-pyrrolo[3,2-d]pyrimidine-4-carboxamide] | < 10
23 | O=C(N[C@H]1CC[C@@](O)(C(F)(F)F)CC1)c1nc(-n2ccnc2)nc2cc[nH]c12 [Example 120b, N-((1r,4r)-4-hydroxy-4-(trifluoromethyl)cyclohexyl)-2-(1H-imidazol-1-yl)-5H-pyrrolo[3,2-d]pyrimidine-4-carboxamide] | 10 to 100
24 | O=C(N[C@H]1CC[C@H](C(F)(F)F)CC1)c1nc(-n2ccnc2)nc2ccsc12 [Example 121, 2-(1H-imidazol-1-yl)-N-((1r,4r)-4-(trifluoromethyl)cyclohexyl)thieno[3,2-d]pyrimidine-4-carboxamide] | < 10
25 | O=C(N[C@H]1CC[C@@H](C(F)(F)F)CC1)c1nc(-n2ccnc2)nc2ccsc12 [Example 122, 2-(1H-imidazol-1-yl)-N-((1s,4s)-4-(trifluoromethyl)cyclohexyl)thieno[3,2-d]pyrimidine-4-carboxamide] | < 10
26 | CC(C)[C@](C)(O)COC1CCC(NC(=O)c2nc(-n3ccnc3)nc3cc[nH]c23)CC1 (stereo partly drawn) [Example 126b, N-((1R,4r)-4-((S)-2-hydroxy-2,3-dimethylbutoxy)cyclohexyl)-2-(1H-imidazol-1-yl)-5H-pyrrolo[3,2-d]pyrimidine-4-carboxamide] | 10 to 100

More lines, now with the values ahead:

Row | IC50 [nM] | Structure (SMILES)
27 | 10 to 100 | O=C(N[C@@H]1CCNC[C@@H]1F)c1nc(-n2ccnc2)nc2cc[nH]c12 [Example 123a, N-((3S,4R)-3-fluoropiperidin-4-yl)-2-(1H-imidazol-1-yl)-5H-pyrrolo[3,2-d]pyrimidine-4-carboxamide]
28 | 100 to 1000 | O=C(N[C@@H]1CCNC[C@H]1F)c1nc(-n2ccnc2)nc2cc[nH]c12 [Example 123b, N-((3R,4R)-3-fluoropiperidin-4-yl)-2-(1H-imidazol-1-yl)-5H-pyrrolo[3,2-d]pyrimidine-4-carboxamide]
29 | 10 to 100 | COCCO[C@H]1CCC[C@H](NC(=O)c2nc(-n3ccnc3)nc3cc[nH]c23)C1 [Example 124a, 2-(1H-imidazol-1-yl)-N-((1S,3S)-3-(2-methoxyethoxy)cyclohexyl)-5H-pyrrolo[3,2-d]pyrimidine-4-carboxamide]
30 | 10 to 100 | COCCO[C@@H]1CCC[C@H](NC(=O)c2nc(-n3ccnc3)nc3cc[nH]c23)C1 [Example 124b, 2-(1H-imidazol-1-yl)-N-((1S,3R)-3-(2-methoxyethoxy)cyclohexyl)-5H-pyrrolo[3,2-d]pyrimidine-4-carboxamide]
31 | 10 to 100 | C[C@H](O)COC1CCC(NC(=O)c2nc(-n3ccnc3)nc3cc[nH]c23)CC1 (stereo partly drawn) [Example 125b, N-((1R,4r)-4-((S)-2-hydroxypropoxy)cyclohexyl)-2-(1H-imidazol-1-yl)-5H-pyrrolo[3,2-d]pyrimidine-4-carboxamide]
32 | 10 to 100 | C[C@](O)(C(=O)NC1CCC(NC(=O)c2nc(-n3ccnc3)nc3cc[nH]c23)CC1)C(F)(F)F (stereo partly drawn) [Example 127b, 2-(1H-imidazol-1-yl)-N-((1R,4r)-4-((S)-3,3,3-trifluoro-2-hydroxy-2-methylpropanamido)cyclohexyl)-5H-pyrrolo[3,2-d]pyrimidine-4-carboxamide]
33 | < 10 | CO[C@]1(C)CC[C@@H](NC(=O)c2nc(-n3ccnc3)nc3cc[nH]c23)CC1 [Example 128a, 2-(1H-imidazol-1-yl)-N-((1r,4r)-4-methoxy-4-methylcyclohexyl)-5H-pyrrolo[3,2-d]pyrimidine-4-carboxamide]
34 | 10 to 100 | CO[C@]1(C)CC[C@H](NC(=O)c2nc(-n3ccnc3)nc3cc[nH]c23)CC1 [Example 128b, 2-(1H-imidazol-1-yl)-N-((1s,4s)-4-methoxy-4-methylcyclohexyl)-5H-pyrrolo[3,2-d]pyrimidine-4-carboxamide]
